The source of these data is PMC8759724 (Journal of Enzyme Inhibition and Medicinal Chemistry, 2021).

Assay [1] addresses WT PfDHFR (Plasmodium falciparum, UniProt P13922, N108S/R59C). Put plainly: Differential scanning fluorimetry. The conditions noted are these: DSF, apo PfDHFR (no NADPH added with the ligand). Format: binding. (DSF heats the sample and reads unfolding from a dye or from intrinsic fluorescence.)
The target in assay [2] is WT PfDHFR (Plasmodium falciparum, UniProt P13922). The experiment in a line: PfDHFR activity assay. Type of assay: biochemical.

What is called IC50 is the concentration needed to halve the response being measured.

For `Nc1nc(=O)c2c([nH]1)NCC(CNc1ccc(C(=O)N[C@@H](CCC(=O)O)C(=O)O)cc1)=N2` [DHF, dihydrofolate], at WT PfDHFR [1], the “ΔTm (melting temperature variation)” value is “minor melting temperature variations”. In the case of `NC(=O)Nc1cccc(C(F)(F)F)c1` [fragment 148, [3-(trifluoromethyl)phenyl]urea], the IC50 at WT PfDHFR [2] was found to be 464 µM. Turning to `NC(=O)C1=CN([C@@H]2O[C@H](COP(=O)(O)OP(=O)(O)OC[C@H]3O[C@@H](n4cnc5c(N)ncnc54)[C@H](OP(=O)(O)O)[C@@H]3O)[C@@H](O)[C@H]2O)C=CC1` [NADPH], the “ΔTm (melting temperature variation)” value on WT PfDHFR [1] was “+4 °C”. Same read-out and setting: next, tetrahydrofolate [THF]: “minor melting temperature variations”.
